Measurements from US12661410B2, “Compounds for targeted degradation of RET” (C4 Therapeutics, Inc., priority 2020, dated 2026).
Substitutions are numbered along the chain they refer to. Counter-ions that a name gives are not always drawn. Like-named read-outs stand apart in the source and are kept apart here.

Key:
RET (658-1114) = target: T1, RET (658-1114) (Homo sapiens, UniProt P07949); assay: HiBiT-Degradation, RET wild-type degradation assay (Nano-Glo HiBiT Lytic), 293T.144 cells; assay type: cell-based; settings: for DC50 / Emax: 6.0 hours; for DC50: read-out: 293T.144 RET (658-1114) 6.0 hours (DC50); for Emax: read-out: 293T.144 RET (658-1114) 6.0 hours (Emax)
T1 construct: 658-1114; expressed in transfected cells; host or cells: 293T.144 (293T cells, generated in-house)
T1 sequence (P07949 658-1114): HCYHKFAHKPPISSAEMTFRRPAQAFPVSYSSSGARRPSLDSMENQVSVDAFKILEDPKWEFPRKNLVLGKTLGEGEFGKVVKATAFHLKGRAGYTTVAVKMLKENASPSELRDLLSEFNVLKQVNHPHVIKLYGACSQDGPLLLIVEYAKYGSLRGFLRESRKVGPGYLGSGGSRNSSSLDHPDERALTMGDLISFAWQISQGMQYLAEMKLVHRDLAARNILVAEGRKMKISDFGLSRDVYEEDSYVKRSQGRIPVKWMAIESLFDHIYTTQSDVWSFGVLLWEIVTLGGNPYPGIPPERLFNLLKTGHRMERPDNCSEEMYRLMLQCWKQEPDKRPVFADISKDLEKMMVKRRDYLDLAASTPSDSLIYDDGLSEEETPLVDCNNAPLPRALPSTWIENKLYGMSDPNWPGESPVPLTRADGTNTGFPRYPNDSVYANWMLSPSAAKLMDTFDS
Procedure, shortened: (§1)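 HEK293T lines expressing HiBiT-tagged RET kinase domain, wild-type (293T.144) or G810R (293T.165), treated 6 h in duplicate, 11-point half-log series from 10 μM top. Lytic HiBiT luminescence read; DC50 and Emax (% protein remaining) from dose-response curves.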

RET(KD: 658-1114 G810R) = target: T2, RET(KD: 658-1114 G810R) (Homo sapiens, UniProt P07949, G810R); assay: HiBiT-Degradation, RET G810R degradation assay (Nano-Glo HiBiT Lytic), 293T.165 cells; assay type: cell-based; settings: for Emax / DC50: 6.0 hours; for Emax: % remaining protein, read-out: 293T.165 RET(KD: 658-1114 G810R) 6.0 hours (Emax); for DC50: read-out: 293T.165 RET(KD: 658-1114 G810R) 6.0 hours (DC50)
T2 construct: 658-1114; expressed in transfected cells; host or cells: 293T.165 (293T cells, generated in-house)
T2 sequence (P07949 658-1114 G810R): T1 sequence (P07949 658-1114) with G153R
Procedure, shortened: as §1

[1] = half-maximal degradation concentration

Structure (SMILES)	293T.144 RET (658-1114) 6.0 hours (IP) [nM] (RET (658-1114); HiBiT-Degradation)	DC50 (RET (658-1114); HiBiT-Degradation) [nM]	Emax (RET (658-1114); HiBiT-Degradation) [%]	Emax (RET(KD: 658-1114 G810R)) [%]	DC50 (RET(KD: 658-1114 G810R); [1]) [nM]	293T.165 RET(KD: 658-1114 G810R) 6.0 hours (Emax) (RET(KD: 658-1114 G810R); HiBiT-Degradation)	293T.165 RET(KD: 658-1114 G810R) 6.0 hours (IP) [nM] (RET(KD: 658-1114 G810R); HiBiT-Degradation)	DC50 (RET(KD: 658-1114 G810R); HiBiT-Degradation) [nM]	293T.144 RET (658-1114) 6.0 hours (IP) [nM] (RET (658-1114))	Emax (RET (658-1114); % remaining protein) [%]	DC50 (RET (658-1114); [1]) [nM]	293T.165 RET(KD: 658-1114 G810R) 6.0 hours (IP) [nM] (RET(KD: 658-1114 G810R))
CCC1(C(=O)NC(C)C)CCN(c2ccc(-c3cc(-c4cnn(C5CCN(C(=O)CN6CCC(c7ccc(NC8CCC(=O)NC8=O)cc7F)CC6)CC5)c4)cn4ncc(C#N)c34)cc2)CC1 (centres unmarked) [Compound 58, 1-[4-[3-cyano-6-[1-[1-[2-[4-[4-[(2,6-dioxo-3-piperidyl)amino]-2-fluoro-phenyl]-1-piperidyl]acetyl]-4-piperidyl]pyrazol-4-yl]pyrazolo[1,5-a]pyridin-4-yl]phenyl]-4-ethyl-N-isopropyl-piperidine-4-carboxamide]	++++ (< 50 nM = ++++)	< 50	< 30	< 50	< 50	+++ (<50% = +++)	++++ (< 50 nM = ++++)	< 50	–	–	–	–
N#Cc1cnn2cc(-c3cnn([C@H]4CC[C@@H](N5CCN(c6ccc(NC7CCC(=O)NC7=O)cc6F)CC5)CC4)c3)nc(-c3ccc(N4CC5CC(C4)N5CC4CCC(F)(F)CC4)nc3)c12 (single isomer, unassigned) [Compound 178, 4-(6-(6-((4,4-Difluorocyclohexyl)methyl)-3,6-diazabicyclo[3.1.1]heptan-3-yl)pyridin-3-yl)-6-(1-((1s, 4s)-4-(4-(4-((2,6-dioxopiperidin-3-yl)amino)-2-fluorophenyl)piperazin-1-yl)cyclohexyl)-1H-pyrazol-4-yl)pyrazolo[1,5-a]pyrazine-3-carbonitrile]	–	–	–	< 30	< 50	–	–	–	++++ (<50 nM = ++++)	< 30	< 50	++++ (<50 nM = ++++)
Cn1nc(N2CCC(=O)NC2=O)c2ccc(C3CCN(CC(=O)N4CCN(c5ccc(-c6cc(-c7ccc(N8CCN(Cc9ccccn9)CC8)nc7)c7c(C#N)cnn7c6)cc5)CC4)CC3)cc21 [Compound 65, 6-[4-[4-[2-[4-[3-(2,4-dioxohexahydropyrimidin-1-yl)-1-methyl-indazol-6-yl]-1-piperidyl]acetyl]piperazin-1-yl]phenyl]-4-[6-[4-(2-pyridylmethyl)piperazin-1-yl]-3-pyridyl]pyrazolo[1,5-a]pyridine-3-carbonitrile]	++++ (< 50 nM = ++++)	< 50	< 30	< 50	< 100	+++ (<50% = +++)	+++ (<100 nM = +++)	< 100	–	–	–	–
CCC1(NC(=O)C(C)C)CCN(c2ccc(-c3cc(-c4cnn(C5CCN(C(=O)CN6CCC(c7ccc(NC8CCC(=O)NC8=O)cc7F)CC6)CC5)c4)cn4ncc(C#N)c34)cn2)CC1 (centres unmarked) [Compound 55, N-[1-[5-[3-cyano-6-[1-[1-[2-[4-[4-[(2,6-dioxo-3-piperidyl)amino]-2-fluoro-phenyl]-1-piperidyl]acetyl]-4-piperidyl]pyrazol-4-yl]pyrazolo[1,5-a]pyridin-4-yl]-2-pyridyl]-4-ethyl-4-piperidyl]-2-methyl-propanamide]	++++ (< 50 nM = ++++)	< 50	< 30	< 50	< 50	+++ (<50% = +++)	++++ (< 50 nM = ++++)	< 50	–	–	–	–
CCC1(C(=O)NC(C)C)CCN(c2ccc(-c3nc(-c4ccc(N5CCN(C(=O)CC6(O)CCN(c7ccc8c(N9CCC(=O)NC9=O)nn(C)c8c7)CC6)CC5)cc4)cn4ncc(C#N)c34)cn2)CC1 [Compound 173, 1-(5-(3-cyano-6-(4-(4-(2-(1-(3-(2,4-dioxotetrahydropyrimidin-1(2H)-yl)-1-methyl-1H-indazol-6-yl)-4-hydroxypiperidin-4-yl)acetyl)piperazin-1-yl)phenyl)pyrazolo[1,5-a]pyrazin-4-yl)pyridin-2-yl)-4-ethyl-N-isopropylpiperidine-4-carboxamide]	–	–	–	< 50	< 100	–	–	–	++++ (<50 nM = ++++)	< 30	< 50	+++ (<100 nM = +++)
CCC1(NC(=O)c2ncccc2Cl)CCN(c2ccc(-c3nc(-c4cnn([C@H]5CC[C@@H](N6CCN(c7ccc8c(N9CCC(=O)NC9=O)nn(C)c8c7F)CC6)CC5)c4)cn4ncc(C#N)c34)cn2)CC1 (single isomer, unassigned) [Compound 170, 3-Chloro-N-(1-(5-(3-cyano-6-(1-((1s, 4s)-4-(4-(3-(2,4-dioxotetrahydropyrimidin-1(2H)-yl)-7-fluoro-1-methyl-1H-indazol-6-yl)piperazin-1-yl)cyclohexyl)-1H-pyrazol-4-yl)pyrazolo[1,5-a]pyrazin-4-yl)pyridin-2-yl)-4-ethylpiperidin-4-yl)picolinamide]	–	–	–	< 30	< 100	–	–	–	++++ (<50 nM = ++++)	< 30	< 50	++++ (<50 nM = ++++)
N#Cc1cnn2cc(-c3cnn(C4CCN(C(=O)CN5CCC(c6ccc(NC7CCC(=O)NC7=O)cc6)CC5)CC4)c3)cc(-c3ccc(N4CCN(C(=O)Cc5ccc(F)cn5)CC4)nc3)c12 (centres unmarked) [Compound 15, 6-[1-[1-[2-[4-[4-[(2,6-dioxo-3-piperidyl)amino]phenyl]-1-piperidyl]acetyl]-4-piperidyl]pyrazol-4-yl]-4-[6-[4-[2-(5-fluoro-2-pyridyl)acetyl]piperazin-1-yl]-3-pyridyl]pyrazolo[1,5-a]pyridine-3-carbonitrile formic acid salt]	++++ (< 50 nM = ++++)	< 50	< 30	< 30	< 100	++++ (< 30% = ++++)	++++ (< 50 nM = ++++)	< 100	–	–	–	–
CCC1(C(=O)NC2CCC2)CCN(c2ccc(-c3nc(-c4cnn([C@H]5CC[C@H](N6CCC(c7ccc8c(N9CCC(=O)NC9=O)nn(C)c8c7F)CC6)CC5)c4)cn4ncc(C#N)c34)cn2)CC1 (single isomer, unassigned) [Compound 138, 1-(5-(3-Cyano-6-(1-((1r, 4r)-4-(4-(3-(2,4-dioxotetrahydropyrimidin-1(2H)-yl)-7-fluoro-1-methyl-1H-indazol-6-yl)piperidin-1-yl)cyclohexyl)-1H-pyrazol-4-yl)pyrazolo[1,5-a]pyrazin-4-yl)pyridin-2-yl)-N-cyclobutyl-4-ethylpiperidine-4-carboxamide]	–	–	–	< 30	< 100	–	–	–	++++ (<50 nM = ++++)	< 30	< 50	++++ (<50 nM = ++++)
CCC1(NC(=O)C(C)C)CCN(c2ccc(-c3nc(-c4cnn([C@H]5CC[C@@H](N6CCN(c7ccc8c(N9CCC(=O)NC9=O)nn(C)c8c7F)CC6)CC5)c4)cn4ncc(C#N)c34)cn2)CC1 (single isomer, unassigned) [Compound 125, N-(1-(5-(3-Cyano-6-(1-((1s, 4s)-4-(4-(3-(2,4-dioxotetrahydropyrimidin-1(2H)-yl)-7-fluoro-1-methyl-1H-indazol-6-yl)piperazin-1-yl)cyclohexyl)-1H-pyrazol-4-yl)pyrazolo[1,5-a]pyrazin-4-yl)pyridin-2-yl)-4-ethylpiperidin-4-yl)isobutyramide]	–	–	–	< 30	< 50	–	–	–	++++ (<50 nM = ++++)	< 30	< 50	++++ (<50 nM = ++++)
